Reference: patent US5744476A, “Dopamine D1 agonists for the treatment of dementia” (Interneuron Pharmaceuticals, Inc., priority 1994, dated 1998)
“Also recorded” adds a separate entry of the source. Like-named read-outs stand apart in the source and are kept apart here.

Assays:
[1] = system: animals; settings: cited from earlier work; for memory-improving effect of nigrostriatal self-stimulation or of d-amphetamine (blockade): in vivo
[2] = system: rodents; settings: cited from earlier work; for retention of win-stay and win-shift tasks: Packard and White, 1989
[3] = system: striatal ACh output; settings: cited from earlier work
[4] = system: PD patients; settings: clinical; cited from earlier work
[5] = system: striatal acetylcholine; assay: In vivo microdialysis, striatal ACh release; design: species or system Male Sprague-Dawley rats; settings: for dialysate concentrations of striatal ACh / duration of increase of dialysate concentrations of striatal ACh: i.p.; for duration of increase of dialysate concentrations of striatal ACh: post-injection
Source text: (§1) The in vivo microdialysis technique is a method for evaluating the effects of drugs on brain neurotransmitter systems by monitoring the extracellular concentration of neurotransmitters and metabolites in awake freely-moving animals. Probes are implanted directly into the brain of rats and serve to continuously sample the extracellular fluid in the vicinity of the probe. Samples containing the dialyzed extracellular fluid are collected at the outlet of the perfusion system and analyzed for content of brain neurotransmitters and metabolites by high-performance liquid chromatography coupled with electrochemical detection (HPLC-EC).
Male Sprague-Dawley rats weighing 250-350 g were group housed (n=3 per cage) in a temperature-controlled room (23±2° C.) on a 14/10 hr light cycle with free access to food and water. After the surgical procedure, animals were placed in individual cages.
The surgical procedure involved the implantation and fixation of a probe holder/guide cannula to the skull of anesthetized rats. The guide cannula was the attachment site for the rigid concentric microdialysis probes which were implanted into the awake, fully-recovered rat at the onset of the experiment. […] For placement of the guide cannulae, rats were anesthetized with ketamine:xylazine (87:13 mg/kg), shaved and placed in a stereotaxic frame (Narashige Instruments). An incision was made to expose the skull and a small hole was drilled to expose the dura mater for placement of the guide. Guide cannulae were implanted in the striatum according to the following stereotaxic coordinates with reference to bregma: AP -+1.5 mm, L -+2.6 mm and V to dura -2.5 mm (Paxinos and Watson, The rat brain in stereotaxic coordinates, 2nd. ed., Academic Press, London, 1986). The microdialysis probe extended 3.0 mm beyond the tip of the guide cannula which yielded a final ventral placement of 5.5 mm below the dura. The coordinates for placement of the guide into frontal cortex were: AP -+3.0 mm, L -+2.8 mm and V to dura 0 mm, with the probe extending 3.0 mm below the dura. Guide cannulae were fixed to the skull with dental acrylic and anchor screws and a dummy cannula was inserted into each guide for the recovery period. Animals were returned to their home cage and allowed to recover from surgery for 24-48 hrs.
For each experiment, the dialysis probe was connected to a microinfusion pump (CMA-100; Bioanalytical Systems (BAS); W. Lafayette, Ind.) equipped with a liquid switch (CMA-110; BAS) via low dead volume fused-silica tubing (I.D.=75 um; O.D.=150 um). At the time of experiment, the dummy cannula was removed and the probe was inserted through the guide into the conscious animal under light restraint.
The probe was perfused continuously with artificial CSF (composition in Mm: 121 NaCl, 3.5 KCl, 1.2 CaCl2, 1.2 MgCl2, 1.0 NaH2 PO4, 25 NaHCO3, and 0.001 neostigmine) at a flow rate of 1.5 ul/min. Dialysate samples were collected every 20 min (total sample volume=30 μl). A 20 ul aliquot was analyzed immediately for acetylcholine (ACh) content by high-performance liquid chromatography with electrochemical detection (HPLC-EC) (see below for details). A baseline period of at least one hour was allowed prior to invoking any experimental manipulations. […] Sample collection proceeded for a minimum of 3 hrs following drug administration. Upon completion of the experiment, animals were sacrificed by decapitation and brains examined grossly to verify probe placement.
DHX and SKF 81297, another D1 agonist (Andersen et al., Eur J Pharmacol 188:335, 1990), were administered ip after a stable baseline of ACh release was established in each animal. […] The effects of DHX on ACh release were evaluated in two brain regions associated with cognition (striatum, frontal cortex).

[6] = system: cortical ACh release; settings: in vivo; cited from earlier work
[7] = system: scopolamine-induced deficits (rats); assay: Passive avoidance in rats, scopolamine-induced amnesia (step-through latency); settings: scopolamine 3.0 mg/kg
[8] = system: MPTP-induced parkinsonism model in primates; settings: cited from earlier work
[9] = system: dopamine D1 receptor; settings: cited from earlier work
[10] = Concentration of DHX in brain and plasma over time; assay type: in vivo, rat; settings: 10 mg/kg
Source text: (§2) The test protocol followed is disclosed in Ungerstedt, Acta Physiol. Scand. 82 Supp. 367, p. 49-68 (1971). […] This activity may reside in one or more optical isomers of such a metabolite.

[11] = system: 6-OHDA-lesioned rats; assay: Rotational behavior in 6-OHDA-lesioned rats (rodent model of PD); assay type: in vivo, rat; settings: 10 mg/kg
Source text: as §2

[12] = system: adenylate cyclase; settings: cited from earlier work
[13] = system: acetylcholine release in the frontal cortex; assay: In vivo microdialysis, frontal cortex ACh release; design: species or system Male Sprague-Dawley rats; settings: injection of DHX
Source text: as §1, with “(HPLC-EC). […]” for “(HPLC-EC).”
The probe was perfused continuously with artificial CSF (composition in Mm: 121 NaCl, 3.5 KCl, 1.2 CaCl2, 1.2 MgCl2, 1.0 NaH2 PO4, 25 NaHCO3, and 0.001 neostigmine) at a flow rate of 1.5 ul/min. […] A 20 ul aliquot was analyzed immediately for acetylcholine (ACh) content by high-performance liquid chromatography with electrochemical detection (HPLC-EC) (see below for details). […]
DHX and SKF 81297, another D1 agonist (Andersen et al., Eur J Pharmacol 188:335, 1990), were administered ip after a stable baseline of ACh release was established in each animal. […] The effects of DHX on ACh release were evaluated in two brain regions associated with cognition (striatum, frontal cortex). […]

[14] = system: monkeys; settings: cited from earlier work
[15] = system: choice accuracy deficits (CADS) due to scopolamine; settings: radial arm maze; cited from earlier work

O=c1[nH]c2ccccc2n1C1CCN(CCCC(c2ccc(F)cc2)c2ccc(F)cc2)CC1 [pimozide]
memory-improving effect of nigrostriatal self-stimulation or of d-amphetamine (blockade) [1]: blocked

C[C@H](N)Cc1ccccc1 [d-amphetamine]
retention of win-stay and win-shift tasks [2]: improved retention of the tasks
win-stay acquisition ([2]; post-training intracaudate injection): improved win-stay acquisition
memory improvement ([1]; indirect dopamine agonist): memory-improving effects

Oc1cc2c(cc1O)[C@@H](c1ccccc1)CNCC2 [(+)-SKF 38393]
increase of striatal ACh output ([3]; systemic administration): 75%

N[C@@H](Cc1ccc(O)c(O)c1)C(=O)O [levodopa]
efficacy in the treatment of PD [4]: allowed PD patients to reach normal life expectancies

Oc1cc2c(c(Cl)c1O)CCNCC2c1ccccc1 (stereo not shown) [SKF 81297]
dialysate concentrations of striatal ACh ([5]; 3.0 mg/kg): increase in dialysate concentration of striatal acetylcholine; also recorded: elevated striatal ACh release

CCCN1CCO[C@@H]2c3cc(O)ccc3CC[C@H]21 [PHNO]
cortical ACh release [6]: no effect

CCCN1CCC[C@@H]2Cc3n[nH]cc3C[C@H]21 [quinpirole]
striatal ACh release ([5]; 2.0 mg/kg, data not shown): decreases striatal ACh release

CN1[C@@H]2C[C@@H](OC(=O)[C@H](CO)c3ccccc3)C[C@H]1[C@@H]1O[C@@H]12 [Scopolamine]
acquisition of the passive avoidance task (deficit) ([7]; ip, 30 min prior to training): severe deficit in the acquisition of the passive avoidance task

NCCc1cc(O)c(O)cc1O [6-OHDA, 6-hydroxydopamine]
learning tasks after lesion of the nigrostriatal tract ([1]; avoidance conditioning, Morris water maze): impair a variety of learning tasks
memory-improving effect of nigrostriatal self-stimulation or of d-amphetamine (blockade) [1]: blocked

Oc1cc2c(cc1O)[C@@H]1c3ccccc3CN[C@H]1CC2 (relative stereo) [DHX, trans-10,11-dihydroxy-5,6,6a,7,8,12b-hexahydrobenzo[a]phenanthridine]
step-through latency ([7]; DHX 0.1 mg/kg): increased step-through latency, however, these increases were not statistically-significant
step-through latency (reversal of scopolamine-induced deficits) ([7]; DHX 0.3 mg/kg, 10 min prior to training): significantly improve scopolamine-induced deficits; also recorded: significantly improved scopolamine-induced deficits in step-through latency
step-through latency ([7]; DHX 1.0 mg/kg): increased step-through latency, however, these increases were not statistically-significant
eye blink rates ([8]; 0.3 to 0.93 mg/kg, im): increasing eye blink rates
parkinsonian signs (tremor, motor freezing, abnormal posture, rigidity, bradykinesia) ([8]; 0.3 to 0.93 mg/kg, im): dramatically attenuated parkinsonian signs
activity in the MPTP-induced parkinsonism model ([8]; primates): potent activity in the MPTP-induced parkinsonism model in primates
affinity for D1 receptor ([9]; D1): nanomolar affinity
selectivity for the D1 over the D2 receptor [9]: 12- to 60 fold
levels of DHX in the brain and plasma [10]: diminished
biological activity in a rodent model of PD (rotational behavior), persistence [11]: persists long after the levels of DHX in the brain and plasma have diminished
potency in the stimulation of adenylate cyclase versus dopamine ([12]; versus dopamine): approximately 70 times more potent
efficacy in the stimulation of adenylate cyclase versus dopamine ([12]; versus dopamine, in words): as efficacious
dialysate concentrations of striatal ACh ([5]; 3.0 mg/kg): increase in dialysate concentration of striatal acetylcholine; also recorded: increase dialysate concentrations of striatal ACh
duration of increase of dialysate concentrations of striatal ACh ([5]; 3.0 mg/kg): at least 180 min
dialysate concentrations of striatal ACh ([5]; 10 mg/kg): increase in dialysate concentration of striatal acetylcholine; also recorded: increase dialysate concentrations of striatal ACh
duration of increase of dialysate concentrations of striatal ACh ([5]; 10 mg/kg): at least 180 min
striatal ACh release ([5]; 17.5 mg/kg): appears to be less than that evoked by lower doses
ACh release in the frontal cortex [13]: increase in acetylcholine release in the frontal cortex; also recorded: increased ACh release in the frontal cortex
spatial working memory ([14]; young, intact monkeys): produced improvements in young, intact monkeys

CC(C)C[C@H]1C(=O)N2CCC[C@H]2[C@]2(O)O[C@](NC(=O)[C@@H]3C=C4c5cccc6[nH]c(Br)c(c56)C[C@H]4N(C)C3)(C(C)C)C(=O)N12 [bromocriptine]
efficacy in the treatment of PD [4]: either limited efficacy relative to levodopa or limited long-term efficacy

CCN1CCC[C@H]1CNC(=O)c1c(O)c(Cl)cc(Cl)c1OC [raclopride]
effect of D1 agonist on striatal ACh output (potentiation) ([3]; administered 60 min after SKF 38393): potentiated

Oc1cc2c(cc1O)C(c1ccccc1)CNCC2 (stereo not shown) [SKF38393]
choice accuracy deficits due to scopolamine [15]: alleviated choice accuracy deficits (CADS) due to scopolamine
selectivity for the D1 over the D2 receptor [9]: greater than 10 fold
retention of win-stay and win-shift tasks [2]: but not SKF38393, improved retention of the tasks
efficacy in stimulating adenylate cyclase relative to dopamine ([12]; as efficacious as dopamine): 30-50%
spatial working memory ([14]; aged and reserpine-treated monkeys): improved spatial working memory in aged and reserpine-treated monkeys

CN1Cc2ccccc2C2c3cccc4[nH]cc(c34)CC21 (single isomer, unassigned) [CY 208-243]
cortical ACh release [6]: significantly increased cortical ACh release

CCCN1C[C@H](CSC)C[C@@H]2c3cccc4[nH]cc(c34)C[C@H]21 [pergolide]
efficacy in the treatment of PD [4]: either limited efficacy relative to levodopa or limited long-term efficacy
